{
  "source": "paper PMC4339887",
  "about": "“Selective Sirt2 inhibition by ligand-induced rearrangement of the active site” (Nature Communications, 2015)",
  "type_in_all_cases": "cell-based",
  "key": {"[1]": {"tested_on": "α-tubulin acetylation in HeLa cells", "experiment": "tubulin acetylation, western blot", "conditions": "various concentrations, 5 h", "from_the_text": "Cell samples were then separated using SDS–PAGE (12.5% (w/v) polyacrylamide), transferred to an activated nitrocellulose membrane (Bio-Rad), blocked with non-fat dry milk (Roth, 5% (w/v), TBS, 0.1% (v/v) Tween 20) and probed with an anti-acetyl-α-tubulin antibody (1:1,000, Sigma-Aldrich, T6793) and an anti-GAPDH antibody (1:2,000–1:5,000, Sigma-Aldrich, G9545) as a loading control (Fusion SL, peqlab). An uncropped blot is shown in Supplementary Fig. 8."}, "[2]": {"tested_on": "mitochondrial lysine-acetylation in HEK293 cells", "experiment": "mitochondrial protein acetylation, western blot of mitochondrial extracts", "conditions": "16 h", "method": "page 27: Cell cultiva tion. HEK-293 cells (ATCC accession no. CRL-1573) were grown in Dulbecco's modified Eagle's medium (DMEM, PAA) containing 10% (vol/vol) fetal calf serum (FCS, PAA), 1% (vol/vol) penicillin (PAA), 1% (vol/vol) streptomycin (PAA), 1% (vol/vol), L- glutamine (PAA) at 37 °C in a 5% (vol/vol) CO2 atmosphere. Mitochondrial extra ction. HEK-293 cells (ATCC accession no. CRL-1573) were treated with nicotinamide or […]2 at the indicated concentrations for 16 h. Cells were washed in PBS and lysed in 5 packed cell volumes of lysis buffer (20 mM HEPES/KOH, 250 mM sucrose; 10 mM KCl, 1.5 mM MgCl2, 1 mM EDTA, 1 mM EGTA, 1 mM DTT; 0.1 mM PMSF, 1uComplete Protease Inhibitor Cocktail (Roche), pH 7.5). Cells were then homogenized in a Dounce homogenizer and 10% (vol/vol) of sample was removed for use as whole cell extract (WCE). To the remaining lysate, unbroken cells and nuclei were removed by centrifugation (10 min, 800g). The supernatant was transferred and centrifuged (10 min, 7,000g) to pellet mitochondria. Mitochondria were washed twice in lysis buffer, repeating centrifugation after each wash, followed by resuspending washed mitochondria in lysis buffer. […] Lysates were cleared by centrifugation, protein concentrations were quantitated and normalized with 1u Laemmli Buffer. […]"}, "BubR1 in HeLa cells": {"tested_on": "BubR1 in HeLa cells", "experiment": "abundance of BubR1, western blot", "method": "Cells were washed with PBS, lysed in IPLS (50 mM Tris/HCl, 150 mM NaCl, 0.5 mM EDTA, 0.5% (v/v) NP-40, pH 7.5, supplemented with Complete protease inhibitors (Roche)). Samples were pelleted and resuspended in 1 × SDS–PAGE sample buffer and heated (95 °C, 5 min). Cell samples were separated using SDS–PAGE (10% (w/v) polyacrylamide), transferred to a nitrocellulose membrane (Bio-Rad), blocked with non-fat dry milk (Roth, 5% (w/v), TBS, 0.1% (v/v) Tween 20) and probed with the anti-BubR1 (1:5,000, BD Biosciences, 612502) and anti-tubulin (1:5,000, Sigma-Aldrich, T5168) as a loading control. Uncropped blots are shown in the Supplementary Fig. 8."}},
  "note": "Entries after “also recorded” stand apart in the source; their conditions may differ.",
  "data": [
    {"smiles": "Cc1cc(C)nc(SCC(=O)Nc2ncc(Cc3cccc4ccccc34)s2)n1", "note": "[SirReal2]", "values": [
      {"measurement": "level of α-tubulin acetylation", "setting": "[1]", "value": "tubulin hyperacetylation; also recorded: significant increase"},
      {"measurement": "acetylation of mitochondrial proteins", "setting": "[2]", "value": "does not alter"},
      {"measurement": "abundance of BubR1", "setting": "BubR1 in HeLa cells; 50 μM, in relation to DMSO control", "value": "significantly reduced"},
      {"measurement": "abundance of BubR1", "setting": "BubR1 in HeLa cells; various concentrations, 16 h", "value": "reduction; also recorded: dose-dependent depletion"}
    ]}
  ]
}
